Each structure is given as a SMILES string.

By IC50 is commonly meant the concentration that inhibits the measured activity by half.

For this assay, the target named is T1, Follicle Stimulating Hormone Receptor (FSHR) (Homo sapiens, UniProt P23945).
T1 construct: HA (N); expressed in transfected cells; host or cells: CHO-K1, transient transfection, pHM6 vector (CMV promoter)
T1 sequence (P23945 18-695): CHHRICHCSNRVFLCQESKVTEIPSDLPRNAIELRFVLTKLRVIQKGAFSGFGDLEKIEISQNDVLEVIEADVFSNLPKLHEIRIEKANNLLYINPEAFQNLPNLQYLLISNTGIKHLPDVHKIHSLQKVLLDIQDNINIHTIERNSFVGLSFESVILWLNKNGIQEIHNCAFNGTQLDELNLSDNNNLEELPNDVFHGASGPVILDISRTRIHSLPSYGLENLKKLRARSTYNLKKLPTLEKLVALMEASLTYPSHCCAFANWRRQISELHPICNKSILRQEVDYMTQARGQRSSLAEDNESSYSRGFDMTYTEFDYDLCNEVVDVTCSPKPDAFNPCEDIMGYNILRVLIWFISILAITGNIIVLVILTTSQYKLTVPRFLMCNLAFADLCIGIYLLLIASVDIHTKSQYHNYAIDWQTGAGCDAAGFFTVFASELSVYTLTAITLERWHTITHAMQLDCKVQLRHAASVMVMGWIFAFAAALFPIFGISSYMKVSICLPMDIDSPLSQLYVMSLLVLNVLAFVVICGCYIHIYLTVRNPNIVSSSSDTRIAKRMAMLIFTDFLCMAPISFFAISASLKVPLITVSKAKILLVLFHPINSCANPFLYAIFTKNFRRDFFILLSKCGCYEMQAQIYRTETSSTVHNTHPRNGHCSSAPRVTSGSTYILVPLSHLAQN
In words: HTRF cAMP agonist assay, FSHR, transiently transfected CHO-K1 cells. The class given is cell-based. The settings on record: CHO-K1 cells transiently expressing human FSHR, read-out: IC50 FSHR LANCE CAMP. On the technique in general: TR-FRET usually uses a lanthanide donor and a delayed reading to cut background.
Consider `COc1cc2c(cc1-c1cncc(C(N)=O)c1)-c1c(c(C(=O)N3CCN(CCO)C(=O)C3(C)C)nn1-c1cc(Cl)cc(Cl)c1)CC2` [Compound 8-70], for which the IC50 was 140 nM. In the case of `COc1cc2c(cc1-c1cncc(C(N)=O)c1)-c1c(c(C(=O)N3CCN(CCN)C(=O)C3(C)C)nn1-c1cc(Cl)cc(Cl)c1)CC2` [Compound 8-71] it was 3730 nM; in that of `COc1cc2c(cc1-c1cncc(C(N)=O)c1)-c1c(c(C(=O)N3CNC(=O)C3(C)C)nn1-c1cc(Cl)cc(Cl)c1)CC2` [Compound 8-72], 8.99 nM; in that of `COc1cc2c(cc1-c1cncc(C(N)=O)c1)-c1c(c(C(=O)N3CC4CC(C3)N4)nn1-c1cc(Cl)cc(Cl)c1)CC2` [Compound 8-74, 5-(3-(3,6-diazabicyclo[3.1.1]heptane-3-carbonyl)-1-(3,5-dichlorophenyl)-7-methoxy-4,5-dihydro-1H-benzo[g]indazol-8-yl)nicotinamide], 453 nM. In the case of `CC1(C)C(=O)NCCN1C(=O)c1nn(-c2ccccn2)c2c1CCc1ccc(-c3cncc(C(N)=O)c3)cc1-2` [Compound 8-75], the IC50 was 27400 nM.

Turning to `CCC1C(=O)NCCN1C(=O)c1nn(-c2ccccn2)c2c1CCc1ccc(-c3cccnc3)cc1-2` (stereo not drawn) [Compound 8-78], the IC50 worked out at 2430 nM. In the case of `C[C@H]1CNC(=O)[C@H](C)N1C(=O)c1nn(-c2ccccn2)c2c1CCc1ccc(-c3cccnc3)cc1-2` [Compound 8-79] it was 6090 nM; in that of `O=C(c1nn(-c2ccccn2)c2c1CCc1ccc(-c3cccnc3)cc1-2)N1CCNC(=O)C12CC2` [Compound 8-81], 5380 nM. For `COc1cc2c(cc1-c1cncc(C(N)=O)c1)-c1c(c(C(=O)N3CCNC(=O)C3)nn1-c1cc(Cl)cc(Cl)c1)CC2` [Compound 8-82], the IC50 worked out at 79.8 nM.

Regarding `COc1cc2c(cc1-c1cncc(C(N)=O)c1)-c1c(c(C(=O)N3CCCC(=O)C3)nn1-c1cc(Cl)cc(Cl)c1)CC2` [Compound 8-83], the IC50 is 38.9 nM. On to `CCC1C(=O)NCCN1C(=O)c1nn(-c2cc(Cl)cc(Cl)c2)c2c1CCc1cc(OC)c(-c3cncc(C(N)=O)c3)cc1-2` (stereo not drawn) [Compound 8-84], for which the IC50 amounted to 32.4 nM. `COc1cc2c(cc1-c1cncc(C(N)=O)c1)-c1c(c(C(=O)N3CC(=O)NCC3(C)C)nn1-c1cc(Cl)cc(Cl)c1)CC2` [Compound 8-86]: the IC50 turned out to be 24.5 nM. In the case of `COc1cc2c(cc1-c1cncc(C(N)=O)c1)-c1c(c(C(=O)N3[C@@H](C)CNC(=O)[C@@H]3C)nn1-c1cc(Cl)cc(Cl)c1)CC2` [Compound 8-87] it was 8.14 nM; in that of `COc1cc2c(cc1-c1cncc(C(N)=O)c1)-c1c(c(C(=O)N3CCNC(=O)C34CC4)nn1-c1cc(Cl)cc(Cl)c1)CC2` [Compound 8-89], 18.9 nM; in that of `COc1cc2c(cc1-c1cncc(C(N)=O)c1)-c1c(c(C(=O)N3CCC(O)C3(C)C)nn1-c1cc(Cl)cc(Cl)c1)CC2` (stereo not drawn) [Compound 8-90A], 2.15 nM. As for `COc1cc2c(cc1-c1cncc(C(N)=O)c1)-c1c(c(C(=O)N3CCC(=O)C3(C)C)nn1-c1cc(Cl)cc(Cl)c1)CC2` [Compound 8-90], the IC50 came out at 6.69 nM.

Take `COc1cc2c(cc1-c1cncc(C(N)=O)c1)-c1[nH]nc(C(=O)N3CCOCC3(C)C)c1CC2` [Compound 9-01]: the IC50 is 1790 nM. Then `CC1(C)COCCN1C(=O)c1nn(-c2cc(Cl)cc(Cl)c2)c2c1CCc1ccc(-c3cncc(C(N)=O)c3)cc1-2` [Compound 9-02], with 3.81 nM; and `CC1(C)COCCN1C(=O)c1nn(-c2cc(Cl)cc(Cl)c2)c2c1CCc1cc(O)c(-c3cncc(C(N)=O)c3)cc1-2` [Compound 9-04, 5-[1-(3,5-dichlorophenyl)-3-(3,3-dimethylmorpholine-4-carbonyl)-7-hydroxy-4,5-dihydrobenzo[g]indazol-8-yl]pyridine-3-carboxamide], with 6.99 nM; and `COc1cc2c(cc1-c1cncc(C(N)=O)c1)-c1c(c(C(=O)N(C)C)nn1-c1cc(Cl)cc(Cl)c1)CC2` [Compound 9-05], with 45.2 nM.

Take `COc1cc2c(cc1-c1cncc(C(N)=O)c1)-c1c(c(CN3CCOCC3(C)C)nn1-c1cc(Cl)cc(Cl)c1)CC2` [Compound 9-06]: the IC50 was 0.976 nM. For the compound `COc1cc2c(cc1-c1cccnc1)-c1c(c(C(=O)N3CCOCC3(C)C)nn1-c1cc(Cl)cc(Cl)c1)CC2` [Compound 9-07], the IC50 was determined as 5.98 nM.

With `COc1ccc2c(c1)CCc1c(C(=O)N3CCOCC3(C)C)nn(-c3cc(Cl)cc(Cl)c3)c1-2` [Compound 9-08A], the IC50 is 2480 nM. Then `COc1cc2c(cc1OC(C)C)-c1c(c(C(=O)N3CCOCC3(C)C)nn1-c1cc(Cl)cc(Cl)c1)CC2` [Compound 9-08], with 16.2 nM; and `CCn1nc(C(=O)N2CCOCC2(C)C)c2c1-c1cc(-c3cncc(C(N)=O)c3)c(OC)cc1CC2` [Compound 9-11], with 830 nM; and `COc1cc2c(cc1-c1cncc(C(N)=O)c1)-c1c(c(C(=O)N3CCOCC3(C)C)nn1C(C)C)CC2` [Compound 9-12], with 701 nM.

On to `CCCn1nc(C(=O)N2CCOCC2(C)C)c2c1-c1cc(-c3cncc(C(N)=O)c3)c(OC)cc1CC2` [Compound 9-13, 5-[3-(3,3-dimethylmorpholine-4-carbonyl)-7-methoxy-1-propyl-4,5-dihydrobenzo[g]indazol-8-yl]pyridine-3-carboxamide], for which the IC50 is 92.4 nM. In the case of `COc1cc2c(cc1-c1cncc(C(N)=O)c1)-c1c(c(C(=O)N3CCOCC3(C)C)nn1CC(C)C)CC2` [Compound 9-14] it was 14.3 nM; in that of `CCCCn1nc(C(=O)N2CCOCC2(C)C)c2c1-c1cc(-c3cncc(C(N)=O)c3)c(OC)cc1CC2` [Compound 9-15, 5-[1-butyl-3-(3,3-dimethylmorpholine-4-carbonyl)-7-methoxy-4,5-dihydrobenzo[g]indazol-8-yl]pyridine-3-carboxamide], 42 nM. In the case of `COc1cc2c(cc1-c1cncc(C(N)=O)c1)-c1c(c(C(=O)N3CCOCC3(C)C)nn1C1CCCCC1)CC2` [Compound 9-16] it was 94.1 nM; in that of `COc1cc2c(cc1-c1cncc(C(N)=O)c1)-c1c(c(C(=O)N3CCOCC3(C)C)nn1-c1ccccc1)CC2` [Compound 9-17], 5.64 nM; in that of `COc1cc2c(cc1-c1cncc(C(N)=O)c1)-c1c(c(C(=O)N3CCOCC3(C)C)nn1-c1cc(F)cc(F)c1)CC2` [Compound 9-18], 0.615 nM. Then `COc1cc(Cl)cc(-n2nc(C(=O)N3CCOCC3(C)C)c3c2-c2cc(-c4cncc(C(N)=O)c4)c(OC)cc2CC3)c1` [Compound 9-20], with 3.85 nM.

For `COc1cc2c(cc1-c1cncc(C(N)=O)c1)-c1c(c(C(=O)N3CCOCC3(C)C)nn1-c1ccsc1)CC2` [Compound 9-21, 5-[3-(3,3-dimethylmorpholine-4-carbonyl)-7-methoxy-1-(3-thienyl)-4,5-dihydrobenzo[g]indazol-8-yl]pyridine-3-carboxamide], the half-inhibitory concentration (IC50) stood at 1.29 nM. In the case of `COc1cc(Cl)cc(-n2ncc3c2-c2cc(-c4cncc(C(N)=O)c4)c(OC)cc2CC3)c1` [Compound 9-24], the IC50 was 15500 nM. In the case of `COc1cc2c(cc1-c1cncc(C(N)=O)c1)-c1c(c(C(=O)N3CCOCC3(C)C)nn1-c1ccccn1)CC2` [Compound 10-01, 5-[3-(3,3-dimethylmorpholine-4-carbonyl)-7-methoxy-1-(2-pyridyl)-4,5-dihydrobenzo[g]indazol-8-yl]pyridine-3-carboxamide] it was 5.06 nM. Then `COc1cc2c(cc1-c1cncc(C(N)=O)c1)-c1c(c(C(=O)N3CCOCC3(C)C)nn1-c1cccnc1)CC2` [Compound 10-02], with 40.1 nM; and `COc1cc2c(cc1-c1cncc(C(N)=O)c1)-c1c(c(C(=O)N3CCOCC3(C)C)nn1-c1ccncc1)CC2` [Compound 10-03], with 190 nM.

Consider `COc1cc2c(cc1-c1cncc(C(N)=O)c1)-c1c(c(C(=O)N3CCOCC3(C)C)nn1-c1cnccn1)CC2` [Compound 10-06], for which the IC50 amounted to 67.4 nM. Turning to `COc1cc2c(cc1-c1cncc(C(N)=O)c1)-c1c(c(C(=O)N3CCOCC3(C)C)nn1-c1cccnn1)CC2` [Compound 10-07], the IC50 is 22.5 nM. In the case of `COc1cc2c(cc1-c1cncc(C(N)=O)c1)-c1c(c(C(=O)N3CCOCC3(C)C)nn1-c1ncccn1)CC2` [Compound 10-08] it was 400 nM; in that of `COc1cc2c(cc1-c1cncc(C(N)=O)c1)-c1c(c(C(=O)N3CCOCC3(C)C)nn1-c1cncnc1)CC2` [Compound 10-09], 165 nM.

With `COc1cc2c(cc1-c1cncc(C(N)=O)c1)-c1c(c(C(=O)N3CCOCC3(C)C)nn1-c1ccncn1)CC2` [Compound 10-10], the IC50 stood at 14.8 nM. As to `COC(=O)c1cc(OC)nc(-c2cc3c(cc2OC)CCc2c(C(=O)N(C)C(C)(C)C)nn(-c4cc(Cl)cc(Cl)c4)c2-3)c1` [Compound 11-01A, methyl2-[3-[tert-butyl(methyl)carbamoyl]-1-(3,5-dichlorophenyl)-7-methoxy-4,5-dihydrobenzo[g]indazol-8-yl]-6-methoxy-pyridine-4-carboxylate], the IC50 came out at 50.1 nM. In the case of `COc1cc(C(N)=O)cc(-c2cc3c(cc2OC)CCc2c(C(=O)N(C)C(C)(C)C)nn(-c4cc(Cl)cc(Cl)c4)c2-3)n1` [Compound 11-01], the IC50 worked out at 12.5 nM.

The values are drawn from patent US20260008783A1, “MODULATORS OF FSHR AND USES THEREOF” (Celmatix Inc., priority 2022, published 2026).
